Data set [1] has as its system Mus musculus. Put plainly: Toxicity in human CX-1 cells xenografted in mouse assessed as chage in body weight at 10 mg/kg, ip for every 4 days 4 doses (Rbv = 24.5%). In kind it is organism-based. Set-up: dose 10 mg/kg, route intraperitoneal. The conditions noted are these: in vivo, 96 h.
Data set [2] deals with CX-1. Description: Antitumor activity against human CX-1 cells xenografted in mouse assessed as tumor growth inhibition at 10 mg/kg, ip for every 4 days 4 doses. On the set-up: scale not given: the % may be the effect or the level left. As to conditions: route intraperitoneal. In kind it is functional. On the technique in general: In xenograft studies the graft and the host belong to different species.

Data set [3] deals with Mus musculus. Description: Toxicity in human CX-1 cells xenografted in mouse assessed as chage in body weight at 5 mg/kg, ip for every 4 days 4 doses (Rbv = 24.5%). As to conditions: in vivo, 96 h. On the set-up: dose 5 mg/kg, route intraperitoneal. The format is organism-based.
For data set [4], the system named is CX-1. Description: Antitumor activity against human CX-1 cells xenografted in mouse assessed as tumor growth inhibition at 5 mg/kg, ip for every 4 days 4 doses. On the set-up: scale not given: the % may be the effect or the level left. As to conditions: route intraperitoneal. In kind it is functional.
Data set [5] deals with CX-1. Put plainly: Antitumor activity against human CX-1 cells xenografted in mouse assessed as mouse survival at 5 mg/kg, ip for every 4 days 4 doses. In kind it is functional, organism-based. Set-up: dose 5 mg/kg.
For another data set, the system named is HL-60. Put plainly: Antiproliferative activity against human HL60 cells after 72 hrs by MTT assay. The conditions noted are these: HL-60, 72 h. The format is functional, cell-based. (Tetrazolium dyes change colour on reduction, which living cells bring about.)
A short description of data set [6]: Aqueous solubility of the compound in deionized water. The format is physicochemical.
A further data set deals with MDA-MB-231. Put plainly: Antiproliferative activity against P-gp expressing multidrug-resistant human MDA-MB-231 cells after 72 hrs by MTT assay. In kind it is functional, cell-based. The conditions noted are these: MDA-MB-231, 72 h.
A short description of data set [7]: Half life in Sprague-Dawley rat at 10 mg/kg, iv. The format is ADME, organism-based. Set-up: dose 10 mg/kg, route intravenous. The conditions noted are these: in vivo.
Data set [8] in a line: Metabolic stability in dog liver microsomes assessed as compound remaining at 5 uM after 1 hr. The format is ADME, Canis lupus familiaris, Microsome. The conditions noted are these: read-out: Stability. In general terms: Microsomes from liver hold many membrane-bound enzymes, among them those of drug oxidation.
Data set [9] in a line: Metabolic stability in human liver microsomes assessed as compound remaining at 5 uM after 1 hr. As to conditions: read-out: Stability. In kind it is ADME, Microsome.
For data set [10], the system named is HCT-116. Put plainly: Antitumor activity against human HCT116 cells xenografted in mouse assessed as mouse survival at 5 mg/kg, ip for every 4 days 4 doses. The format is functional, organism-based. On the set-up: dose 5 mg/kg.
In data set [11] the test system is Mus musculus. Put plainly: Toxicity in human HCT116 cells xenografted in mouse assessed as chage in body weight at 5 mg/kg, ip for every 4 days 4 doses (Rbv = -5.7%). In kind it is organism-based, HCT-116. Set-up: dose 5 mg/kg, route intraperitoneal. The conditions noted are these: in vivo, 96 h.
Data set [12] concerns HCT-116. Description: Antitumor activity against human HCT116 cells xenografted in mouse assessed as tumor growth inhibition at 5 mg/kg, ip for every 4 days 4 doses. The format is functional. On the set-up: scale not given: the % may be the effect or the level left. As to conditions: route intraperitoneal.
Data set [13] deals with CX-1. Put plainly: Antitumor activity against human CX-1 cells xenografted in mouse assessed as mouse survival at 10 mg/kg, ip for every 4 days 4 doses. On the set-up: dose 10 mg/kg. In kind it is functional, organism-based.
Data set [14] has as its system HCT-116. Description: Antitumor activity against human HCT116 cells xenografted in mouse assessed as mouse survival at 10 mg/kg, ip for every 4 days 4 doses. On the set-up: dose 10 mg/kg. The format is functional, organism-based.
The subject of data set [15] is HCT-116. Description: Antitumor activity against human HCT116 cells xenografted in mouse assessed as tumor growth inhibition at 10 mg/kg, ip for every 4 days 4 doses. In kind it is functional. On the set-up: scale not given: the % may be the effect or the level left. As to conditions: route intraperitoneal.
Data set [16] deals with Mus musculus. Put plainly: Toxicity in human HCT116 cells xenografted in mouse assessed as chage in body weight at 10 mg/kg, ip for every 4 days 4 doses (Rbv = -5.7%). The format is organism-based, HCT-116. On the set-up: dose 10 mg/kg, route intraperitoneal. As to conditions: in vivo, 96 h.

Converted amounts (≈) assume the structure as drawn. The source made the active and inactive calls. The calls are words filed in the database; no cut-off is given here. A value given as a limit tells only on which side of the number the result lay.

With `COc1cc(C(=O)c2ccc(-c3csc(NC(=O)CN)n3)cc2-n2cncn2)cc(OC)c1OC`, the Activity in the data set with Mus musculus [1] was determined as 21%; in the data set with CX-1 [2], 44%; in the data set with Mus musculus [3], 22.2%; in the data set on CX-1 [4] it was 40%. For the same compound, in the data set with CX-1 [5], the result was Active. 27 nM corresponded to half-maximal inhibition in the data set on HL-60 (IC50).
For the compound `COc1cc(C(=O)c2ccc(-c3csc(NC(=O)[C@@H]4CCCN4)n3)cc2-n2cncn2)cc(OC)c1OC`, half-maximal inhibition in the data set on HL-60 (IC50) required 98 nM.
For `COc1cc(C(=O)c2ccc(-c3csc(N)n3)cc2-n2cncn2)cc(OC)c1OC`, the solubility in [6] was under 100 µg/mL. This compound had a 50% inhibitory concentration (IC50) in the data set with MDA-MB-231 of 9.8 nM. In addition, the half-life in [7] was determined as 1.65 min. Also, the remaining at 1 h, 5 µM in data set [8] and in [9] was 60% throughout.
`COc1cc(C(=O)c2ccc(-c3csc(NC(=O)[C@H](N)Cc4ccc(F)cc4)n3)cc2-n2cncn2)cc(OC)c1OC`: it took 740 nM to reach half-maximal inhibition with HL-60 (IC50).
Still for that read-out and setting: under `COc1cc(C(=O)c2ccc(-c3csc(NC(=O)[C@H](N)c4ccccc4)n3)cc2-n2cncn2)cc(OC)c1OC` stands 280 nM.
In the data set on MDA-MB-231, `COc1ccc(/C=C\c2cc(OC)c(OC)c(OC)c2)cc1N` yielded an IC50 of 45 nM.
In the case of `COc1cc(C(=O)c2ccc(-c3csc(NC(=O)[C@@H](N)CC4CCCCC4)n3)cc2-n2cncn2)cc(OC)c1OC`, it took 86 nM to reach half-maximal inhibition with HL-60 (IC50).
Take `COc1cc(C(=O)c2ccc(-c3csc(NC(=O)[C@H](C)N)n3)cc2-n2cncn2)cc(OC)c1OC`: the result with HCT-116 [10] was Active. Besides, the 50% inhibitory concentration (IC50) in the data set with HL-60 worked out at 13 nM. Further, the Activity with Mus musculus [11] is -1.7%; in the data set on HCT-116 [12], 62%.
As to `COc1cc(C(=O)c2ccc(-c3csc(NC(=O)[C@@H](N)Cc4ccccc4)n3)cc2-n2cncn2)cc(OC)c1OC`, the Activity is listed as 24.5% in the data set on Mus musculus [1], 43% with CX-1 [2], 28.9% with Mus musculus [3] and 21% in the data set on CX-1 [4]. For the same compound, the outcome in the data set on CX-1 [5] and in the data set with CX-1 [13] was Active. The compound further came in with an IC50 in the data set on HL-60 of 89 nM.
With `COc1cc(C(=O)c2ccc(-c3csc(NC(=O)[C@@H](N)CC(C)C)n3)cc2-n2cncn2)cc(OC)c1OC`, the IC50 in the data set with HL-60 came out at 76 nM.
On to `COc1cc(C(=O)c2ccc(-c3csc(NC(=O)[C@H](N)Cc4ccc(Cl)cc4)n3)cc2-n2cncn2)cc(OC)c1OC`, for which the IC50 in the data set on HL-60 came out at 920 nM.
In the case of `COc1cc(C(=O)c2ccc(-c3csc(NC(=O)[C@@H](N)C(C)C)n3)cc2-n2cncn2)cc(OC)c1OC`, the outcome in the data set with HCT-116 [14], with CX-1 [5] and in the data set on CX-1 [13] was Active. This compound had a solubility in data set [6] of 930 µg/mL (≈ 1730 µM). For the same compound, the Activity in the data set on Mus musculus [1] amounted to 14.7%; in the data set with CX-1 [2] it was 64%; with Mus musculus [3], 25.7%; with CX-1 [4], 28%; in the data set on HCT-116 [15], 88%; with Mus musculus [16] it was 5.1%. This compound returned a half-life in data set [7] of 0.41 min. Further, the remaining at 1 h, 5 µM in [8] stood at 10%; in data set [9], 15%. The same compound had an IC50 with HL-60 of 110 nM.
In the data set with HL-60, `COc1cc(C(=O)c2ccc(-c3csc(NC(=O)[C@@H](N)CO)n3)cc2-n2cncn2)cc(OC)c1OC` returned an IC50 of 81 nM.
As to `COc1cc(C(=O)c2ccc(-c3csc(NC(=O)C(C)(C)N)n3)cc2-n2cncn2)cc(OC)c1OC`, the Activity in the data set on Mus musculus [1] is 26.7%; in the data set with CX-1 [2], 20%; in the data set with Mus musculus [3] it was 24.8%; with CX-1 [4] it was 23%. The outcome in the data set with CX-1 [5] and in the data set on CX-1 [13] was Active. This compound came in with a concentration for half-maximal inhibition (IC50) in the data set with HL-60 of 5 nM.
As for `COc1cc(C(=O)c2ccc(-c3csc(NC(=O)[C@H](N)Cc4ccc(C(F)(F)F)cc4)n3)cc2-n2cncn2)cc(OC)c1OC`, in the data set with HL-60, the IC50 was over 2000 nM.

Usually IC50 stands for the midpoint of a concentration-inhibition curve. By solubility is commonly meant how much of the substance goes into solution per volume. As usually defined, the half-life is the time in which the quantity being followed falls by half.
